Data from Sander's compilation of Henry's law constants (doi:10.5985/jec.7.81).

Experiment: Henry solubility constant Hcp at 298.15 K (mol/(m3 Pa))
Details: reference: Kondoh and Nakajima (1997)

| Compound | Henry solubility constant Hcp |
| --- | --- |
| Cc1cccc(C)c1 [1,3-dimethylbenzene] | 0.0015 |
| CCC(C)c1ccccc1 (centres undefined) [(1-methylpropyl)-benzene] | 0.00075 |
| Cl/C=C/CCl [trans-1,3-dichloropropene] | 0.01 |
| ClC=C(Cl)Cl [trichloroethene] | 0.0011 |
| CC(Cl)(Cl)Cl [1,1,1-trichloroethane] | 0.00067 |
| Cc1ccc(C(C)C)cc1 [1-methyl-4-(1-methylethyl)-benzene] | 0.001 |
| ClCCl [dichloromethane] | 0.0037 |
| C=C(Cl)Cl [1,1-dichloroethene] | 0.00046 |
| Cc1cc(C)cc(C)c1 [1,3,5-trimethylbenzene] | 0.0015 |
| Cc1ccccc1C [1,2-dimethylbenzene] | 0.0019 |
| CC(C)(C)c1ccccc1 [(1,1-dimethylethyl)-benzene] | 0.00094 |
| ClC(Cl)Br [bromodichloromethane] | 0.0054 |
| ClCBr [bromochloromethane] | 0.0078 |
| BrC(Br)Br [tribromomethane] | 0.014 |
| ClC(Cl)=C(Cl)Cl [tetrachloroethene] | 0.00069 |
| Clc1ccc(Cl)cc1 [1,4-dichlorobenzene] | 0.0047 |
| Cc1ccc(C)cc1 [1,4-dimethylbenzene] | 0.0015 |
| CC(Cl)CCl (centres undefined) [1,2-dichloropropane] | 0.0043 |
| Cc1ccccc1 [methylbenzene] | 0.0017 |
| CC(C)c1ccccc1 [(2-propyl)-benzene] | 0.001 |
| C=Cc1ccccc1 [ethenylbenzene] | 0.0038 |
| Clc1cccc(Cl)c1Cl [1,2,3-trichlorobenzene] | 0.015 |

| Compound | Henry solubility constant Hcp |
| --- | --- |
| c1ccccc1 [benzene] | 0.0018 |
| ClC(Cl)=C(Cl)C(Cl)=C(Cl)Cl [hexachlorobutadiene] | 0.0007 |
| CC=C(Cl)Cl [1,1-dichloropropene] | 0.00054 |
| ClCCCCl [1,3-dichloropropane] | 0.011 |
| ClC(Cl)(Cl)Cl [tetrachloromethane] | 0.00044 |
| CCCCc1ccccc1 [butylbenzene] | 0.00091 |
| BrCBr [dibromomethane] | 0.012 |
| ClCC(Cl)CCl [1,2,3-trichloropropane] | 0.028 |
| Brc1ccccc1 [bromobenzene] | 0.0049 |
| CCc1ccccc1 [ethylbenzene] | 0.0014 |
| Clc1cccc(Cl)c1 [1,3-dichlorobenzene] | 0.0038 |
| ClCC(Cl)(Cl)Cl [1,1,1,2-tetrachloroethane] | 0.0043 |
| Cc1ccc(C)c(C)c1 [1,2,4-trimethylbenzene] | 0.0023 |
| Cl/C=C\CCl [cis-1,3-dichloropropene] | 0.0063 |
| ClC(Br)Br [dibromochloromethane] | 0.0098 |
| c1ccc2ccccc2c1 [naphthalene] | 0.017 |
| CCCc1ccccc1 [propylbenzene] | 0.0011 |
| CC(C)(Cl)Cl [2,2-dichloropropane] | 0.00071 |
| ClCC(Cl)Cl [1,1,2-trichloroethane] | 0.011 |
| Cc1ccc(Cl)cc1 [1-chloro-4-methylbenzene] | 0.0029 |
| Clc1ccccc1 [chlorobenzene] | 0.003 |
| ClCC(Br)CBr (centres undefined) [1,2-dibromo-3-chloropropane] | 0.5 |
